# pIC50: −log10 of the molar value.
# Biological target: T1, Bovine lens aldose reductase (Bos taurus, UniProt P16116)
# T1 construct: Bovine lens aldose reductase was separated and partially purified; from tissue; host or cells: bovine lens
# Test: Inhibition of Aldose reductase
# Type: biochemical
# Settings: for inhibition at 5 µg/mL: read-out: Inhibition at 5 μg/ml
# Method: Bovine lens aldose reductase was separated and partially purified by the method of S. Hyman and J. H. Kinoshita [J. Biol. Chem., 240, 877 (1965)] and K. Inagaki, I. Miwa and J. Okuda [Arch. Biochem. Biophys., 316, 337 (1982)], and its activity was determined photometrically by the method of Varma et al. [Biochem. Pharmac., 25, 2505 (1976)]. […]
Compound,pIC50,inhibition at 5 µg/mL
"CC(CSc1ccc(CC2SC(=O)NC2=O)cc1)N1CC(COc2cccc(Cl)c2)OC1=O (single isomer, unassigned) [10 (less polar), 5-{4-[2-(5-3'-Chlorophenoxymethyl-2-oxooxazolidin-3-yl)propylthio]benzyl}thiazolidine-2,4-dione]",5.40,60.1%
"CC(COc1ccc(CC2SC(=O)NC2=O)cc1)N1CC(COCCCc2ccccc2)OC1=O (single isomer, unassigned) [24 (less polar), 5-{4-[2-(5-3'-Phenylpropoxymethyl-2-oxooxazolidin-3-yl)propoxy]benzyl}thiazolidine-2,4-dione]",5.71,71.7%
"CC(COc1ccc(CC2SC(=O)NC2=O)cc1)N1CC(COCCCCc2ccccc2)OC1=O (single isomer, unassigned) [25 (less polar), 5-{4-[2-(5-4'-Phenylbutoxymethyl-2-oxooxazolidin-3-yl)propoxy]benzyl}thiazolidine-2,4-dione]",5.41,57.1%
"CCC(COc1ccc(CC2SC(=O)NC2=O)cc1)N1CC(COc2cccc(Cl)c2)OC1=O (single isomer, unassigned) [47 (less polar), 5-{4-[2-(5-3'-Chlorophenoxymethyl-2-oxooxazolidin-3-yl)butoxy]benzyl}thiazolidine-2,4-dione]",5.50,57.6%
"CC(CSc1ccc(CC2SC(=O)NC2=O)cc1)N1CC(COc2cccc(Cl)c2)OC1=O (stereo not shown) [10 (polar), 5-{4-[2-(5-3'-Chlorophenoxymethyl-2-oxooxazolidin-3-yl)propylthio]benzyl}thiazolidine-2,4-dione]",6.10,88.3%
"CC(COc1ccc(CC2SC(=O)NC2=O)cc1)N1CC(COCCCCc2ccccc2)OC1=O (stereo not shown) [25 (polar), 5-{4-[2-(5-4'-Phenylbutoxymethyl-2-oxooxazolidin-3-yl)propoxy]benzyl}thiazolidine-2,4-dione]",6.37,82%
"COc1ccc(OCC2CN(C(C)COc3ccc(CC4SC(=O)NC4=O)cc3)C(=O)O2)cc1 (stereo not shown) [31 (polar), 5-{4-[2-(5-4'-Methoxyphenoxymethyl-2-oxooxazolidin-3-yl)propoxy]benzyl}thiazolidine-2,4-dione]",6.06,88.1%
"CC(COc1ccc(CC2SC(=O)NC2=O)cc1)NCC(O)COc1cccc(Cl)c1 (stereo not shown) [Example 2, 5-{4-[2-(3-3'-Chlorophenoxy-2-hydroxypropylamino)propoxy]benzyl}thiazolidine-2,4-dione]",5.22,63.2%
"CC(COc1ccc(CC2SC(=O)NC2=O)cc1)N1CC(COc2ccccc2)OC1=O (stereo not shown) [Example 4, 5-{4-[2-(5-Phenoxymethyl-2-oxooxazolidin-3-yl)propoxy]benzyl}thiazolidine-2,4-dione]",5.62,84.5%
"CC(COc1ccc(CC2SC(=O)NC2=O)cc1)N1CC(Cc2ccccc2)OC1=O (stereo not shown) [Example 8, 5-{4-[2-(5-Benzyl-2-oxooxazolidin-3-yl)propoxy]benzyl}thiazolidine-2,4-dione]",5.30,67.2%
"CC(COc1ccc(CC2SC(=O)NC2=O)cc1)NCC(O)COCCCCCc1ccccc1 (stereo not shown) [Example 16, 5-{4-[2-(3-5'-Phenylpentyloxy-2-hydroxypropylamino)propoxy]benzyl}thiazolidine-2,4-dione]",5.18,59.2%
"CC(COc1ccc(CC2SC(=O)NC2=O)cc1)NCC(O)COCCCCCCCCc1ccccc1 (stereo not shown) [Example 21, 5-{4-[2-(3-8'-Phenyloctyloxy-2-hydroxypropylamino)propoxy]benzyl}thiazolidine-2,4-dione]",5.34,58.7%
"CC(COc1ccc(CC2SC(=O)NC2=O)cc1)N1CC(COCCc2ccccc2)OC1=O (stereo not shown) [Example 23, 5-{4-[2-(5-2'-Phenylethoxymethyl-2-oxooxazolidin-3-yl)propoxy]benzyl}thiazolidine-2,4-dione]",5.48,70.7%
"CC(COc1ccc(CC2SC(=O)NC2=O)cc1)N1CC(COCCCCCc2ccccc2)OC1=O (stereo not shown) [Example 26, 5-{4-[2-(5-5'-Phenylpentyloxymethyl-2-oxooxazolidin-3-yl)propoxy]benzyl}thiazolidine-2,4-dione]",5.98,74.2%
"CC(COc1ccc(CC2SC(=O)NC2=O)cc1)N1CC(COCCCCCCc2ccccc2)OC1=O (stereo not shown) [Example 27, 5-{4-[2-(5-6'-Phenylhexyloxymethyl-2-oxooxazolidin-3-yl)propoxy]benzyl}thiazolidine-2,4-dione]",5.45,54.9%
"CC(COc1ccc(CC2SC(=O)NC2=O)cc1)N1CC(COc2cccc(F)c2)OC1=O (stereo not shown) [Example 30, 5-{4-[2-(5-3'-Fluorophenoxymethyl-2-oxooxazolidin-3-yl)propoxy]benzyl}thiazolidine-2,4-dione]",5.42,68.6%

Compound,pIC50,inhibition at 5 µg/mL
"CC(COc1ccc(CC2SC(=O)NC2=O)cc1)NCC(O)COc1cccc(N(C)C)c1 (stereo not shown) [Example 32, 5-{4-[2-(3-3'-Dimethylaminophenoxy-2-hydroxypropylamino)propoxy]benzyl}thiazolidine-2,4-dione]",5.21,54.6%
"CC(COc1ccc(CC2SC(=O)NC2=O)cc1)N1CC(COc2cccc(N(C)C)c2)OC1=O (stereo not shown) [Example 33, 5-{4-[2-(5-3'-Dimethylaminophenoxymethyl-2-oxooxazolidin-3-yl)propoxy]benzyl}thiazolidine-2,4-dione]",6.19,85.5%
"CC(COc1ccc(CC2SC(=O)NC2=O)cc1)NCC(O)COc1ccc(-c2ccccc2)cc1 (stereo not shown) [Example 34, 5-{4-[2-(3-4'-Phenylphenoxy-2-hydroxypropylamino)propoxy]benzyl}thiazolidine-2,4-dione]",5.43,62%
"CC(COc1ccc(CC2SC(=O)NC2=O)cc1)NCC(O)CSc1ccccc1 (stereo not shown) [Example 37, 5-{4-[2-(3-Phenylthio-2-hydroxypropylamino)propoxy]benzyl}thiazolidine-2,4-dione]",5.06,55.2%
"CC(COc1ccc(CC2SC(=O)NC2=O)cc1)N1CC(CSc2ccccc2)OC1=O (stereo not shown) [Example 38, 5-{4-[2-(5-Phenylthiomethyl-2-oxooxazolidin-3-yl)propoxy]benzyl}thiazolidine-2,4-dione]",5.82,80.1%
"CC(COc1ccc(CC2SC(=O)NC2=O)cc1)N1CC(CN(C)c2ccccc2)OC1=O (stereo not shown) [Example 40, 5-[4-{2-[5-(N-Methyl-N-phenylaminomethyl)-2-oxooxazolidin-3-yl]propoxy}benzyl]thiazolidine-2,4-dione]",5.73,80.9%
"CC(COc1ccc(CC2SC(=O)NC2=O)cc1)N1CC(COCc2cccc(Cl)c2)OC1=O (stereo not shown) [Example 42, 5-{4-[2-(5-3'-Chlorobenzyloxymethyl-2-oxooxazolidin-3-yl)propoxy]benzyl}thiazolidine-2,4-dione]",5.73,74%
"CC(COc1ccc(CC2SC(=O)NC2=O)cc1)N1CC(COCc2cccc(Cl)c2)OC1=S (stereo not shown) [Example 43, 5-{4-[2-(5-3'-Chlorobenzyloxymethyl-2-thioxooxazolidin-3-yl)propoxy]benzyl}thiazolidine-2,4-dione]",5.93,65.9%
"CCC(COc1ccc(CC2SC(=O)NC2=O)cc1)NCC(O)COc1cccc(Cl)c1 (stereo not shown) [Example 46, 5-{4-[2-(3-3'-Chlorophenoxy-2-hydroxypropylamino)butoxy]benzyl}thiazolidine-2,4-dione]",5.22,61%
"CC(COc1ccc(CC2SC(=O)NC2=O)cc1)N1CC(COc2ccccc2)OC1=S (stereo not shown) [Example 49, 5-{4-[2-(5-Phenoxymethyl-2-thioxooxaolidin-3-yl)propoxy]benzyl}thiazolidine-2,4-dione]",5.98,77.8%
"CCCC(COc1ccc(CC2SC(=O)NC2=O)cc1)N1CC(COc2cccc(Cl)c2)OC1=O (stereo not shown) [Example 50, 5-{4-[2-(5-3'-Chlorophenoxymethyl-2-oxooxazolidin-3-yl)pentyloxy]benzyl}thiazolidine-2,4-dione]",6.21,–
"CC(C)(COc1ccc(CC2SC(=O)NC2=O)cc1)N1CC(COc2cccc(Cl)c2)OC1=O (stereo not shown) [Example 52, 5-{4-[2-(5,3'-Chlorophenoxymethyl-2-oxooxazolidin-3-yl)-2-methylpropoxy]benzyl}thiazolidine-2,4-dione]",5.73,72.8%
"O=C1NC(=O)C(Cc2ccc(OCCCN3CC(COc4ccccc4)OC3=O)cc2)S1 (stereo not shown) [Example 53, 5-{4-[3-(5-Phenoxymethyl-2-oxooxazolidin-3-yl)propoxy]benzyl}thiazolidine-2,4-dione]",5.62,77.6%
"O=C1NC(=O)C(Cc2ccc(OCCCCN3CC(COc4cccc(Cl)c4)OC3=O)cc2)S1 (stereo not shown) [Example 54, 5-{4-[4-(5-3'-Chlorophenoxymethyl-2-oxooxazolidin-3-yl)butoxy]benzyl}thiazolidine-2,4-dione]",5.70,69.1%
"CC(COc1ccc(CC2SC(=O)NC2=O)cc1)N1CCOC(COc2cccc(Cl)c2)C1 (stereo not shown) [Example 55, 5-{4-[2-(2-3'-Chlorophenoxymethylmorpholino)propoxy]benzyl}thiazolidine-2,4-dione]",5.54,62.7%
